Laboratory results as given in patent publication EP0813867B1, “Retroviral protease inhibitors” (priority 1990, dated 1992).
Where two headings read alike, the source gives them in different places.

Key:
[1] = target: T1, HIV protease (Human immunodeficiency virus type 1 group M subtype B, UniProt P04585); assay: biochemical; format: biochemical
T1 construct: HIV protease is diluted in the assay buffer to a final enzyme concentration of 12.3 nanomolar, based on a molecular weight of 10,780
Procedure: The enzyme method is described below. The substrate is 2-aminobenzoyl-Ile-Nle-Phe(p-NO2)-Gln-ArgNH2. The positive control is MVT-101 (Miller, M. et al, Science, 246, 1149 (1989)] The assay conditions are as follows:
The above described substrate is dissolved in DMSO, then diluted 10 fold in assay buffer. Final substrate concentration in the assay is 80 µM.
HIV protease is diluted in the assay buffer to a final enzyme concentration of 12.3 nanomolar, based on a molecular weight of 10,780.
The final concentration of DMSO is 14% and the final concentration of glycerol is 18%. The test compound is dissolved in DMSO and diluted in DMSO to 10x the test concentration; 10µl of the enzyme preparation is added, the materials mixed and then the mixture is incubated at ambient temperature for 15 minutes. The enzyme reaction is initiated by the addition of 40µl of substrate. The increase in fluorescence is monitored at 4 time points (0, 8, 16 and 24 minutes) at ambient temperature. Each assay is carried out in duplicate wells.

[2] = system: CEM cells; assay: Intrinsic toxicity of the test compound in CEM cells without virus (MTT); format: cell-based; settings: Table 14, medium without virus, 7 days
Excerpt: Methods 20, 309-321 (1988).

[3] = system: HIV-1; assay: HIV inhibition assay of acutely infected CEM cells (tetrazolium based colorimetric, MTT); settings: Human immunodeficiency virus 1, CCRF-CEM, 168 h
Procedure: The HIV inhibition assay method of acutely infected cells is an automated tetrazolium based colorimetric assay essentially that reported by Pauwles et al, J. Virol. […] Assays were performed in 96-well tissue culture plates. CEM cells, a CD4^+ cell line, were grown in RPMI-1640 medium (Gibco) supplemented with a 10% fetal calf serum and were then treated with polybrene (2µg/ml). An 80 µl volume of medium containing 1 x 10^4 cells was dispensed into each well of the tissue culture plate. To each well was added a 100µl volume of test compound dissolved in tissue culture medium (or medium without test compound as a control) to achieve the desired final concentration and the cells were incubated at 37°C for 1 hour. A frozen culture of HIV-1 was diluted in culture medium to a concentration of 5 x 10^4 TCID50 per ml (TCID50 = the dose of virus that infects 50% of cells in tissue culture), and a 20µL volume of the virus sample (containing 1000 TCID50 of virus) was added to wells containing test compound and to wells containing only medium (infected control cells). Several wells received culture medium without virus (uninfected control cells). Likewise, the intrinsic toxicity of the test compound was determined by adding medium without virus to several wells containing test compound.
In experiments 2 and 4 the final concentrations of test compounds were 1, 10, 100 and 500 µg/ml. Either azidothymidine (AZT) or dideoxyinosine (ddI) was included as a positive drug control. […] DMSO was added to all control wells at an appropriate concentration.
Following the addition of virus, cells were incubated at 37°C in a humidified, 5% CO2 atmosphere for 7 days. Test compounds could be added on days 0, 2 and 5 if desired. On day 7, post-infection, the cells in each well were resuspended and a 100µl sample of each cell suspension was removed for assay. A 20µL volume of a 5 mg/ml solution of 3-(4,5-dimethylthiazol-2-yl)-2,5-diphenyltetrazolium bromide (MTT) was added to each 100µL cell suspension, and the cells were incubated for 4 hours at 27°C in a 5% CO2 environment. […] To each sample was added 100µl of 10% sodium dodecylsulfate in 0.01 N HCl to lyse the cells, and samples were incubated overnight. The absorbance at 590 nm was determined for each sample using a Molecular Devices microplate reader. Absorbance values for each set of wells is compared to assess viral control infection, uninfected control cell response as well as test compound by cytotoxicity and antiviral efficacy.

[4] = Table 13, 12.3 nanomolar enzyme, 80 µM substrate, pH 6.4, ambient temperature, read-out: IC50
[5] = IC50, Table 13, 12.3 nanomolar enzyme, 80 µM substrate, pH 6.4, ambient temperature
[6] = IC50, Table 14, above-described enzyme assay

Structure (SMILES): CC(C)(C)NC(=O)N(CCc1ccccc1)CC(O)C(Cc1ccccc1)NC(=O)C(CC(N)=O)NC(=O)OCc1ccccc1 (stereo not drawn) [Compound 4a, Butanediamide, N^1-[3-[[[(1,1-dimethylethyl)amino]carbonyl](2-phenylethyl)amino]-2-hydroxy-1-(phenylmethyl)propyl]-2-[(N-benzyloxycarbonyl)amino]-, [1S-[1R*(R*),2S*]]-]
- IC50 [1, 4]: 70 nM

Structure (SMILES): CC(C)CCN(CC(O)C(Cc1ccccc1)NC(=O)C(CC(N)=O)NC(=O)c1ccc2ccccc2n1)C(=O)NC(C)(C)C (stereo not drawn) [Compound 5b, Butanediamide, N^1-[3-[[[(1,1-dimethylethyl)amino]carbonyl](3,3-dimethylpropyl)amino]-2-hydroxy-1-(phenylmethyl)propyl]-2-[(2-quinolinylcarbonyl)amino]-, [1S-[1R*(R*),2S*]]-]
- IC50 [1, 4]: 3.7 nM

Structure (SMILES): CC(=O)NCC(C)C(=O)NC(Cc1ccccc1)C(O)CN(CCC(C)C)C(=O)NC(C)(C)C (stereo not drawn) [Compound 7, Propanamide, 3-(acetylamino)-N-[3-[[[(11,-dimethylethyl)amino]carbonyl](3-methylbutyl)amino]-2-hydroxy-1-(phenylmethyl)propyl]-2-methyl-, [1S-[1R*(S*),2S*]]-]
- IC50 [1, 4]: 100 nM

Structure (SMILES): CC(C)CCN(C[C@@H](O)[C@H](Cc1ccccc1)NC(=O)[C@H](C)C(C)(C)C(=O)O)C(=O)NC(C)(C)C [Compound 11, Butanoic acid, 4-[[3-[[[(1,1-dimethylethyl)amino]carbonyl] (3-methylbutyl)amino]-2-hydroxy-1-(phenylmethyl)propyl]amino-2,2,3-trimethyl-4-oxo-, [1S-[1R*(3S*), 2S*]]-]
- IC50 [1, 5]: 8 nM

Structure (SMILES): CC(C)CCN(CC(O)C(Cc1ccccc1)NC(=O)C(CC(N)=O)NC(=O)c1ccc2ccccc2n1)C(=O)NC(C)(C)C (stereo not drawn) [Compound 2b, Butanediamide, N^1-[3-[[[(1,1-dimethylethyl)amino]carbonyl](3-methylbutyl)amino]-2-hydroxy-1-(phenylmethyl)propyl]-2-[(2-quinolinylcarbonyl)amino]-, [1S-[1R*(R*),2S*]]-]
- IC50 [1, 5]: 3.2 nM

Structure (SMILES): CC(C)(C)NC(=O)N(Cc1ccc2ccccc2c1)C[C@@H](O)[C@H](Cc1ccccc1)NC(=O)[C@H](CC(N)=O)NC(=O)OCc1ccccc1 [Compound 3a, Butanediamide, N^1-[3-[[[(1,1-dimethylethyl)amino]carbonyl](2-naphthylmethyl)amino]-2-hydroxy-1-(phenylmethyl)propyl]-2-[(N-benzyloxycarbonyl)amino]-, [1S-[1R*(R*), 2S*]]-]
- IC50 [1, 4]: 31 nM

Structure (SMILES): CC(C)(C)NC(=O)N(Cc1ccc2ccccc2c1)CC(O)C(Cc1ccccc1)NC(=O)C(CC(N)=O)NC(=O)c1ccc2ccccc2n1 (stereo not drawn) [Compound 3b, Butanediamide, N^1-[3-[[[(1,1-dimethylethyl)amino]carbonyl](2-naphthylmethyl)amino]-2-hydroxy-1-(phenylmethyl)propyl]-2-[(2-quinolinylcarbonyl)amino]-, [1S-[1R*(R*),2S*]]-]
- IC50 [1, 4]: 2.9 nM

Structure (SMILES): NC(=O)CC(NC(=O)c1ccc2ccccc2n1)C(=O)NC(Cc1ccccc1)C(O)CN(Cc1ccc(F)cc1)C(=O)N1CCCC1 (stereo not drawn) [Compound 9, Butanediamide, N^1-[2-hydroxy-3-[(4-fluorophenylmethyl)(1-pyrrolidinylcarbonyl)amino]-1-(phenylmethyl)propyl]-2-[(2-quinolinylcarbonyl)amino]-, [1S-[1R*(R*),2S*]]-]
- IC50 [1, 4]: 7 nM

Structure (SMILES): CC(C)CCN(C[C@@H](O)[C@H](Cc1ccccc1)NC(=O)[C@H](CC(N)=O)NC(=O)OCc1ccccc1)C(=O)NC(C)(C)C (relative stereo) [Compound 5a, Butanediamide, N^1-[3-[[[(1,1-dimethylethyl)amino]carbonyl](3,3-dimethylpropyl)amino]-2-hydroxy-1-(phenylmethyl)propyl]-2-[(N-benzyloxycarbonyl)amio], [1S-[1R*(R*),2S*]]-]
- IC50 ([1]; Table 13, 12.3 nanomolar enzyme, 80 µM substrate, pH 6.4, ambient temperature): 18 nM

Structure (SMILES): CC(C)CCN(C[C@@H](O)[C@H](Cc1ccccc1)NC(=O)[C@H](CC(N)=O)NC(=O)OCc1ccccc1)C(=O)NC(C)(C)C [Compound 2a, Butanediamide, N^1-[3-[[[(1,1-dimethylethyl)amino]carbonyl](3-methylbutyl)amino]-2-hydroxy-1-(phenylmethyl)propyl]-2-[(N-benzyloxycarbonyl)amino], [1S-[1R*(R*),2S*]]-]
- IC50 [1, 4]: 13.4 nM

Structure (SMILES): CCCCNC(=O)N(CC(C)C)C[C@@H](O)[C@H](Cc1ccccc1)NC(=O)[C@H](CC(N)=O)NC(=O)c1ccc2ccccc2n1 [butanediamide N^1[3-[[[n-butylamino]carbonyl](2-methylpropyl)amino]-2-hydroxy-1-(phenylmethyl)propyl]-2-[(2-quinolinylcarbonyl)amino]-[1S-[1R*(R*), 2S*]]-.]
- TD50 [2]: 53 µM
- EC50 [3]: 26 nM

Structure (SMILES): CC(C)CN(CC(O)C(Cc1ccccc1)NC(=O)C(CC(N)=O)NC(=O)c1ccc2ccccc2n1)C(=O)NC(C)(C)C (stereo not drawn) [Compound 1b, Butanediamide, N^1-[3-[[[(1,1-dimethylethyl)amino]carbonyl](2-methylpropyl)amino]-2-hydroxy-1-(phenylmethyl)propyl]-2-[(2-quinolinylcarbonyl)amino]-, [1S-[1R*(R*),2S*]]-]
- IC50 [1, 5]: 7.1 nM
- IC50 [1, 6]: 7 nM
- TD50 [2]: 16 µM
- EC50 [3]: 10 nM

Structure (SMILES): CC(C)CCN(CC(O)C(Cc1ccccc1)NC(=O)C(C)CS(C)(=O)=O)C(=O)NC(C)(C)C (stereo not drawn) [Compound 6, Propanamide, N-[3-[[[(1,1-dimethylethyl)amino]carbonyl](3-methylbutyl)amino]-2-hydroxy-1-(phenylmethyl)propyl]-2-methyl-3-(methylsulfonyl)-, [1S-[1R*(R*), 2S*]]-]
- IC50 [1, 4]: 29 nM

Structure (SMILES): CC(C)CCN(C[C@@H](O)[C@H](Cc1ccccc1)NC(=O)[C@H](C)C(C)(C)C(N)=O)C(=O)NC(C)(C)C [Compound 10, Butanediamide, N^1-[3-[[[(1,1-dimethylethyl)amino]carbonyl](3-methylbutyl)amino]-2-hydroxy-1-(phenylmethyl)propyl]-2,3,3-trimethyl-, [1S-[1R*(2S*),2S*]]-]
- IC50 [1, 4]: 12 nM

Structure (SMILES): CC(=O)N[C@H](C(=O)N[C@@H](Cc1ccccc1)[C@H](O)CN(CCC(C)C)C(=O)NC(C)(C)C)C(C)(C)C [Compound 12, Butaneamide,2-(acetylamino)-N-[3-[[[(1,1-dimethylethyl)amino]-carbonyl](3-methylbutyl)amino]-2-hydroxy-1-(phenylmethyl)propyl]-3,3-dimethyl-, [1S-[1R*(R*),2S*]]-]
- IC50 [1, 4]: 18 nM

Structure (SMILES): CC(C)(C)NC(=O)N(CCc1ccccc1)CC(O)C(Cc1ccccc1)NC(=O)C(CC(N)=O)NC(=O)c1ccc2ccccc2n1 (stereo not drawn) [Compound 4b, Butanediamide, N^1-[3-[[[(1,1-dimethylethyl)amino]carbonyl](2-phenylethyl)amino]-2-hydroxy-1-(phenylmethyl)propyl]-2-[(2-quinolinylcarbonyl)amino]-, [1S-[1R*(R*),2S*]]-]
- IC50 [1, 5]: 10 nM
- IC50 [1, 6]: 10 nM
- TD50 [2]: 13 µM
- EC50 [3]: 28 nM

Structure (SMILES): COc1ccc(COC(=O)NC[C@@H](C)C(=O)N[C@@H](Cc2ccccc2)[C@H](O)CN(CCC(C)C)C(=O)NC(C)(C)C)cc1 [Compound 8, Propanamide, 3-(4-methoxybenzyloxy-carbonyl)amino-N-[3-[[[(11,-dimethylethyl)amino]carbonyl](3-methylbutyl)amino]-2-hydroxy-1-(phenylmethyl)propyl]-2-methyl-, [1S-[1R*(S*),2S*]]-]
- IC50 [1, 5]: 6 nM

Structure (SMILES): CCCCNC(=O)N(CC(C)C)C[C@@H](O)[C@H](Cc1ccccc1)NC(=O)[C@H](CC(N)=O)NC(=O)OCc1ccccc1
- TD50 [2]: 170 to 180 µM
- EC50 [3]: 17000 nM
